In patent US11445724B2, “Insecticidal compounds” (SYNGENTA PARTICIPATIONS AG, priority 2013, dated 2022):

Key:
Assay type in all cases: in vivo
[1] = test system: Diabrotica balteata (Corn root worm); assay: Diabrotica balteata (Corn root worm) larval mortality, artificial diet in 24-well MTP; settings: 120 h, application rate 200 ppm (concentration in well 18 ppm), L2 larvae, larval mortality after 5 days
[2] = test system: Tetranychus urticae (Two-spotted spider mite); assay: Tetranychus urticae (Two-spotted spider mite) mortality, sprayed bean leaf discs; settings: foliar, 192 h, 200 ppm spray on bean leaf discs, mixed ages, egg, larval and adult mortality after 8 days
[3] = test system: Spodoptera littoralis (Egyptian cotton leafworm); assay: Spodoptera littoralis (Egyptian cotton leafworm) mortality, sprayed cotton leaf discs; settings: foliar, 72 h, 200 ppm spray on cotton leaf discs, L1 larvae, mortality 3 DAT
[4] = test system: Myzus persicae (Green peach aphid); assay: Myzus persicae (Green peach aphid) mortality, test compounds mixed with Sucrose solution under Parafilm; settings: 120 h, 12.5 ppm in Sucrose solution, infested pea seedlings on Parafilm, mortality 5 days after infestation
[5] = test system: Thrips tabaci (Onion thrips); assay: Thrips tabaci (Onion thrips) mortality, sprayed sunflower leaf discs; settings: foliar, 168 h, 200 ppm spray on sunflower leaf discs, mixed ages, mortality after 7 days
[6] = test system: Myzus persicae (Green peach aphid); assay: Myzus persicae (Green peach aphid) mortality, sprayed sunflower leaf discs; settings: foliar, 144 h, 200 ppm spray on sunflower leaf discs, mixed ages, mortality 6 DAT
[7] = test system: Plutella xylostella (Diamond back moth); assay: Plutella xylostella (Diamond back moth) larval mortality, artificial diet in 24-well MTP; settings: 144 h, application rate 200 ppm (concentration in well 18 ppm), L2 larvae, larval mortality after 6 days

COc1c(NC(=O)c2ccncc2)cccc1C(=O)Nc1c(Br)cc(C(F)(C(F)(F)F)C(F)(F)F)cc1OC(F)F [Compound 3]
≥ 80%: pest or weed control at 200 ppm [1] | pest or weed control at 200 ppm [2] | pest or weed control at 200 ppm [3] | pest or weed control at 12.5 ppm [4] | pest or weed control at 200 ppm [5] | pest or weed control at 200 ppm [6] | pest or weed control at 200 ppm [7]

CCN(C(=O)c1ccncc1)c1cccc(C(=O)Nc2c(Br)cc(C(F)(C(F)(F)F)C(F)(F)F)cc2OC(F)F)c1OC [Compound 4]
≥ 80%: pest or weed control at 200 ppm [1] | pest or weed control at 200 ppm [2] | pest or weed control at 200 ppm [3] | pest or weed control at 12.5 ppm [4] | pest or weed control at 200 ppm [5] | pest or weed control at 200 ppm [6] | pest or weed control at 200 ppm [7]

N#Cc1ccc(C(=O)Nc2cccc(C(=O)Nc3c(Br)cc(C(F)(C(F)(F)F)C(F)(F)F)cc3OC(F)F)c2F)cc1 [Compound 5]
≥ 80%: pest or weed control at 200 ppm [1] | pest or weed control at 200 ppm [2] | pest or weed control at 200 ppm [3] | pest or weed control at 12.5 ppm [4] | pest or weed control at 200 ppm [5] | pest or weed control at 200 ppm [6] | pest or weed control at 200 ppm [7]

COc1c(NC(=O)c2ccc(C#N)cc2)cccc1C(=O)Nc1c(Br)cc(C(F)(C(F)(F)F)C(F)(F)F)cc1OC(F)F [Compound 6]
≥ 80%: pest or weed control at 200 ppm [1] | pest or weed control at 200 ppm [2] | pest or weed control at 200 ppm [3] | pest or weed control at 12.5 ppm [4] | pest or weed control at 200 ppm [5] | pest or weed control at 200 ppm [6] | pest or weed control at 200 ppm [7]

CCN(C(=O)c1ccc(C#N)cc1)c1cccc(C(=O)Nc2c(Br)cc(C(F)(C(F)(F)F)C(F)(F)F)cc2OC(F)F)c1OC [Compound 9]
≥ 80%: pest or weed control at 200 ppm [1] | pest or weed control at 200 ppm [2] | pest or weed control at 200 ppm [3] | pest or weed control at 12.5 ppm [4] | pest or weed control at 200 ppm [5] | pest or weed control at 200 ppm [6] | pest or weed control at 200 ppm [7]

CCN(C(=O)c1ccc(C#N)cc1)c1cccc(C(=O)Nc2c(Br)cc(C(F)(C(F)(F)F)C(F)(F)F)cc2OC(F)F)c1F [Compound 10]
≥ 80%: pest or weed control at 200 ppm [1] | pest or weed control at 200 ppm [2] | pest or weed control at 200 ppm [3] | pest or weed control at 12.5 ppm [4] | pest or weed control at 200 ppm [5] | pest or weed control at 200 ppm [6] | pest or weed control at 200 ppm [7]

CCN(C(=O)c1cc[n+]([O-])cc1)c1cccc(C(=O)Nc2c(Br)cc(C(F)(C(F)(F)F)C(F)(F)F)cc2OC(F)F)c1F [Compound 11, N-[3-[[2-bromo-6-(difluoromethoxy)-4-[1,2,2,2-tetrafluoro-1-(trifluoromethyl)ethyl]phenyl]carbamoyl]-2-fluoro-phenyl]-N-ethyl-1-oxido-pyridin-1-ium-4-carboxamide]
≥ 80%: pest or weed control at 200 ppm [1] | pest or weed control at 200 ppm [2] | pest or weed control at 200 ppm [3] | pest or weed control at 12.5 ppm [4] | pest or weed control at 200 ppm [5] | pest or weed control at 200 ppm [6] | pest or weed control at 200 ppm [7]

CCN(C(=O)c1cc[n+]([O-])cc1)c1cccc(C(=O)Nc2c(Br)cc(C(F)(C(F)(F)F)C(F)(F)F)cc2OC(F)F)c1OC [Compound 12]
≥ 80%: pest or weed control at 200 ppm [1] | pest or weed control at 200 ppm [2] | pest or weed control at 200 ppm [3] | pest or weed control at 12.5 ppm [4] | pest or weed control at 200 ppm [5] | pest or weed control at 200 ppm [6] | pest or weed control at 200 ppm [7]

N#Cc1ccc(C(=O)Nc2cccc(C(=O)Nc3c(Cl)cc(C(F)(C(F)(F)F)C(F)(F)F)cc3OC(F)F)c2F)cc1 [Compound 13]
≥ 80%: pest or weed control at 200 ppm [1] | pest or weed control at 200 ppm [2] | pest or weed control at 200 ppm [3] | pest or weed control at 12.5 ppm [4] | pest or weed control at 200 ppm [5] | pest or weed control at 200 ppm [6] | pest or weed control at 200 ppm [7]

COc1c(NC(=O)c2ccc(C#N)cc2)cccc1C(=O)Nc1c(Cl)cc(C(F)(C(F)(F)F)C(F)(F)F)cc1OC(F)F [Compound 14, N-[2-chloro-6-(difluoromethoxy)-4-[1,2,2,2-tetrafluoro-1-(trifluoromethyl)ethyl]phenyl]-3-[(4-cyanobenzoyl)amino]-2-methoxy-benzamide]
≥ 80%: pest or weed control at 200 ppm [1] | pest or weed control at 200 ppm [2] | pest or weed control at 200 ppm [3] | pest or weed control at 12.5 ppm [4] | pest or weed control at 200 ppm [5] | pest or weed control at 200 ppm [6] | pest or weed control at 200 ppm [7]

O=C(Nc1cccc(C(=O)Nc2c(Cl)cc(C(F)(C(F)(F)F)C(F)(F)F)cc2OC(F)F)c1F)c1ccncc1 [Compound 15]
≥ 80%: pest or weed control at 200 ppm [1] | pest or weed control at 200 ppm [2] | pest or weed control at 200 ppm [3] | pest or weed control at 12.5 ppm [4] | pest or weed control at 200 ppm [5] | pest or weed control at 200 ppm [6] | pest or weed control at 200 ppm [7]

COc1c(NC(=O)c2ccncc2)cccc1C(=O)Nc1c(Cl)cc(C(F)(C(F)(F)F)C(F)(F)F)cc1OC(F)F [Compound 16]
≥ 80%: pest or weed control at 200 ppm [1] | pest or weed control at 200 ppm [2] | pest or weed control at 200 ppm [3] | pest or weed control at 12.5 ppm [4] | pest or weed control at 200 ppm [5] | pest or weed control at 200 ppm [6] | pest or weed control at 200 ppm [7]

CCN(C(=O)c1ccc(C#N)cc1)c1cccc(C(=O)Nc2c(Cl)cc(C(F)(C(F)(F)F)C(F)(F)F)cc2OC(F)F)c1F [Compound 17]
≥ 80%: pest or weed control at 200 ppm [1] | pest or weed control at 200 ppm [2] | pest or weed control at 200 ppm [3] | pest or weed control at 12.5 ppm [4] | pest or weed control at 200 ppm [5] | pest or weed control at 200 ppm [6] | pest or weed control at 200 ppm [7]

CCN(C(=O)c1ccc(C#N)cc1)c1cccc(C(=O)Nc2c(Cl)cc(C(F)(C(F)(F)F)C(F)(F)F)cc2OC(F)F)c1OC [Compound 18]
≥ 80%: pest or weed control at 200 ppm [1] | pest or weed control at 200 ppm [2] | pest or weed control at 200 ppm [3] | pest or weed control at 12.5 ppm [4] | pest or weed control at 200 ppm [5] | pest or weed control at 200 ppm [6] | pest or weed control at 200 ppm [7]

CCN(C(=O)c1ccncc1)c1cccc(C(=O)Nc2c(Cl)cc(C(F)(C(F)(F)F)C(F)(F)F)cc2OC(F)F)c1F [Compound 19]
≥ 80%: pest or weed control at 200 ppm [1] | pest or weed control at 200 ppm [2] | pest or weed control at 200 ppm [3] | pest or weed control at 12.5 ppm [4] | pest or weed control at 200 ppm [5] | pest or weed control at 200 ppm [6] | pest or weed control at 200 ppm [7]

CCN(C(=O)c1ccncc1)c1cccc(C(=O)Nc2c(Cl)cc(C(F)(C(F)(F)F)C(F)(F)F)cc2OC(F)F)c1OC [Compound 20]
≥ 80%: pest or weed control at 200 ppm [1] | pest or weed control at 200 ppm [2] | pest or weed control at 200 ppm [3] | pest or weed control at 12.5 ppm [4] | pest or weed control at 200 ppm [5] | pest or weed control at 200 ppm [6] | pest or weed control at 200 ppm [7]

O=C(Nc1cccc(C(=O)Nc2c(Br)cc(C(F)(C(F)(F)F)C(F)(F)F)cc2OC(F)F)c1F)c1ccccc1Cl [Compound 21]
≥ 80%: pest or weed control at 200 ppm [1] | pest or weed control at 200 ppm [2] | pest or weed control at 200 ppm [3] | pest or weed control at 12.5 ppm [4] | pest or weed control at 200 ppm [5] | pest or weed control at 200 ppm [6] | pest or weed control at 200 ppm [7]

O=C(Nc1cccc(C(=O)Nc2c(Br)cc(C(F)(C(F)(F)F)C(F)(F)F)cc2OC(F)F)c1F)c1ccc([N+](=O)[O-])cc1 [Compound 22]
≥ 80%: pest or weed control at 200 ppm [1] | pest or weed control at 200 ppm [2] | pest or weed control at 200 ppm [3] | pest or weed control at 12.5 ppm [4] | pest or weed control at 200 ppm [5] | pest or weed control at 200 ppm [6] | pest or weed control at 200 ppm [7]

Cc1ccc(C(=O)Nc2cccc(C(=O)Nc3c(Br)cc(C(F)(C(F)(F)F)C(F)(F)F)cc3OC(F)F)c2F)cc1 [Compound 23]
≥ 80%: pest or weed control at 200 ppm [1] | pest or weed control at 200 ppm [2] | pest or weed control at 200 ppm [3] | pest or weed control at 12.5 ppm [4] | pest or weed control at 200 ppm [5] | pest or weed control at 200 ppm [6] | pest or weed control at 200 ppm [7]

O=C(Nc1cccc(C(=O)Nc2c(Br)cc(C(F)(C(F)(F)F)C(F)(F)F)cc2OC(F)F)c1F)c1cc(Cl)ccc1F [Compound 24]
≥ 80%: pest or weed control at 200 ppm [1] | pest or weed control at 200 ppm [2] | pest or weed control at 200 ppm [3] | pest or weed control at 12.5 ppm [4] | pest or weed control at 200 ppm [5] | pest or weed control at 200 ppm [6] | pest or weed control at 200 ppm [7]

O=C(Nc1cccc(C(=O)Nc2c(Br)cc(C(F)(C(F)(F)F)C(F)(F)F)cc2OC(F)F)c1F)c1ccc([N+](=O)[O-])cc1Cl [Compound 25]
≥ 80%: pest or weed control at 200 ppm [1] | pest or weed control at 200 ppm [2] | pest or weed control at 200 ppm [3] | pest or weed control at 12.5 ppm [4] | pest or weed control at 200 ppm [5] | pest or weed control at 200 ppm [6] | pest or weed control at 200 ppm [7]

O=C(Nc1cccc(C(=O)Nc2c(Br)cc(C(F)(C(F)(F)F)C(F)(F)F)cc2OC(F)F)c1F)c1ccc(OC(F)(F)F)cc1 [Compound 26]
≥ 80%: pest or weed control at 200 ppm [1] | pest or weed control at 200 ppm [2] | pest or weed control at 200 ppm [3] | pest or weed control at 12.5 ppm [4] | pest or weed control at 200 ppm [5] | pest or weed control at 200 ppm [6] | pest or weed control at 200 ppm [7]
